Measurements reported in publication PMC9103715, “New Panx-1 Blockers: Synthesis, Biological Evaluation and Molecular Dynamic Studies” (International Journal of Molecular Sciences, 2022).

Assays:
Panx-1 channels = biological target: T1, Panx-1 channels (Mus musculus, UniProt Q9JIP4); test: Voltage clamp on Xenopus laevis oocytes expressing Panx-1 channels; assay type: cell-based; settings: for inhibition at 50 µM / I (%) inhibition of Panx-1 currents: voltage clamp, Xenopus laevis oocytes expressing Panx-1 channels, 50 µM; for inhibition at 50 µM: read-out: I (%) inhibition of Panx-1 currents; for classification as active or inactive Panx-1 blocker: grouping chosen for the virtual screening
T1 construct: expressed in transfected cells; host or cells: Xenopus laevis oocytes injected with in vitro-transcribed mRNA
Procedure: All new products were screened as Panx-1 blockers at the dose of 50 µM using the Voltage Clamp technique on Xenopus Laevis oocytes expressing Panx-1 channels. The membrane potential of the cells was held at -60 mV and voltage steps to +60 mV were applied to induce membrane currents. To verify that Panx-1 channels carried the currents, in each experiment 100 µM carbenoxolone (CBX) was applied. At this concentration, CBX is known to yield 100% inhibition of Panx-1 activity. If present, leak currents resistant to CBX were subtracted from the total current to assess % inhibition mediated by the tested compounds. Table 1 and Table 2 report the electrophysiological results of naphthalene-2-sulphonic acid derivatives bearing at position 5 an amino- (3a–e, 4 and 5) or amide group (7a–g, 8 and 9) and of compound 13.
Oocytes of Xenopus laevis are prepared as previously described in [39] where the oocytes are isolated from surgically removed ovary segments incubated in an Oocyte Ringe solution Ca2-free (OR2: in mM: 82.5 NaCl, 2.5 KCl, 1.0 MgCl2, […], 1.0 Na2HPO4 e 5.0 HEPES, pH 7.5) with 2 mg/mL of collagenase and antibiotics (10,000 U/mL penicillin and 10 mg/mL of streptomycin) stirred at room temperature for 3 h. After being washed with OR2, oocytes free of follicular cells and that have a uniform pigmentation are chosen and stored in OR2 for 18 °C.
Mouse pannexin1, in pCS2, was linearised with NotI. In vitro transcription was performed with the polymerase SP6, using the Message Machine kit (Ambion). mRNA was quantified by absorbance (260 nm), and the proportion of full-length transcripts was checked by agarose gel electrophoresis. In vitro-transcribed mRNA (~20 nL) was injected into Xenopus laevis oocytes.
Whole-cell membrane currents of oocytes were measured using a two-electrode voltage clamp (Gene Clamp 500B, Axon Instruments/Molecular Devices Sunnyvale, Union City, CA, USA). Glass pipettes were pulled using a P-97 Flaming/Brown type puller (Sutter, Novato, CA, USA). The recording chamber was perfused continuously with frog Ringer (OR) solution (in mM: 82.5 NaCl, 2.5 KCl, 1 CaCl2, 1 MgCl2, 1 Na2HPO4, and 5 HEPES, pH 7.5).
Membrane conductance was determined using voltage pulses, and the pulse-induced current amplitudes were divided by the amplitudes of the voltage steps. For calculation of % inhibition, leak currents were subtracted. Typically, leak currents after the interventions were smaller than at the beginning of the experiment and this smaller value was used for the subtraction to avoid overestimation of the inhibitory effect. For an independent measure of the leak current, oocytes at the end of the experiment were exposed to 100 µM carbenoxolone, which is known to close Panx1 channels 100%. Oocytes expressing Panx1 were held at −60 mV, and pulses to +60 mV were applied to transiently open the channels by means of the voltage gate. Pulses 5 s in duration were applied at 0.1 Hz for current and conductance measurements.

T1 sequence (Q9JIP4 whole entry): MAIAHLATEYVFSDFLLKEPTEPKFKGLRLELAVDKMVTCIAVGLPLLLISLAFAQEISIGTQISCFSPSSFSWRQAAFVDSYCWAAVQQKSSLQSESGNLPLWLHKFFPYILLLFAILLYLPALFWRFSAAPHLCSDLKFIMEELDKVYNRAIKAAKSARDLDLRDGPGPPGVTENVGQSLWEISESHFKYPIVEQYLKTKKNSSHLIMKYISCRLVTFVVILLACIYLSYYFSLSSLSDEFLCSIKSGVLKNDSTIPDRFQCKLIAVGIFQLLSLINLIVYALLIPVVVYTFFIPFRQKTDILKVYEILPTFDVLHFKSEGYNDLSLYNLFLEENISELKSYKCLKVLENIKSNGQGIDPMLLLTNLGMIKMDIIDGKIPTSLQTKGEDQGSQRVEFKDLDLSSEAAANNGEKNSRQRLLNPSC

SMILES	inhibition at 50 µM (Panx-1 channels) [%]	other results
O=S(=O)(O)c1ccc2c(NCc3ccccc3)cccc2c1 (hydrate or solvate) [Compound 3a, 5-(Benzylamino)naphthalene-2-Sulfonic Acid]	–	melting point: > 300 °C
O=S(=O)(O)c1ccc2c(NCCc3ccccc3)cccc2c1 (hydrate or solvate) [Compound 3b, 5-(Phenethylamino)naphthalene-2-sulfonic acid]	–	melting point: > 300 °C
O=S(=O)(O)c1ccc2c(NCCCc3ccccc3)cccc2c1 (hydrate or solvate) [Compound 3c, 5-[(3-Phenylpropyl)amino]naphthalene-2-sulfonic acid]	–	melting point: > 300 °C
O=S(=O)(O)c1ccc2c(NCCCCc3ccccc3)cccc2c1 (hydrate or solvate) [Compound 3d, 5-[(4-Phenylbutyl)amino]naphthalene-2-sulfonic acid]	–	melting point: > 300 °C
O=S(=O)(O)c1ccc2c(NCCCCCc3ccccc3)cccc2c1 (hydrate or solvate) [Compound 3e, 5-[(5-Phenylpentyl)amino]naphthalene-2-sulfonic acid]	–	melting point: > 300 °C
O=S(=O)(O)c1ccc2c(NCc3ccccc3)cccc2c1 [Compound 3a, 5-(Benzylamino)naphthalene-2-Sulfonic Acid]	31.7 ± 0.9	classification as active or inactive Panx-1 blocker (Panx-1 channels): inactive
O=S(=O)(O)c1ccc2c(NCCc3ccccc3)cccc2c1 [Compound 3b, 5-(Phenethylamino)naphthalene-2-sulfonic acid]	24.3 ± 3.5	–
O=S(=O)(O)c1ccc2c(NCCCCc3ccccc3)cccc2c1 [Compound 3d, 5-[(4-Phenylbutyl)amino]naphthalene-2-sulfonic acid]	47 ± 5.7	–
O=S(=O)(O)c1ccc2c(NCCCCCc3ccccc3)cccc2c1 [Compound 3e, 5-[(5-Phenylpentyl)amino]naphthalene-2-sulfonic acid]	62 ± 6	–
CN(Cc1ccccc1)c1cccc2cc(S(=O)(=O)O)ccc12 [Compound 5, 5-(Benzyl(methyl)amino)naphthalene-2-sulfonic Acid]	27.3 ± 2.6	–
O=C(Nc1cccc2cc(S(=O)(=O)O)ccc12)c1ccccc1 [Compound 8, 5-Benzamidonaphthalene-2-sulfonic Acid]	15	I (%) inhibition of Panx-1 currents (Panx-1 channels): 15.3 ± 4.9%; classification as active or inactive Panx-1 blocker (Panx-1 channels): inactive
CCCCN(CCCC)S(=O)(=O)c1ccc(C(=O)Nc2cccc3cc(S(=O)(=O)[O-])ccc23)cc1.[Na+] [Compound 9, Sodium 5-[4-(N,N-dibutylsulfamoyl)benzamido]naphthalene-2-sulfonate]	–	I (%) inhibition of Panx-1 currents (Panx-1 channels): 65.3 ± 3.9%

Now from value to molecule, other results behind:

inhibition at 50 µM (Panx-1 channels) [%]	SMILES	other results
54 ± 2.3	CCN(CC)S(=O)(=O)c1ccc(C(=O)Nc2cccc3cc(S(=O)(=O)O)ccc23)cc1 [Compound 7a, 5-[4-(N,N-diethylsulfamoyl)benzamido]naphthalene-2-sulfonic acid]	–
34	CCCN(CCC)S(=O)(=O)c1ccc(C(=O)Nc2cccc3cc(S(=O)(=O)O)ccc23)cc1 [Compound 7b, 5-[4-(N,N-dipropylsulfamoyl)benzamido]naphthalene-2-sulfonic acid]	I (%) inhibition of Panx-1 currents (Panx-1 channels): 34.3 ± 5.2%
58.3 ± 7.5	O=C(Nc1cccc2cc(S(=O)(=O)O)ccc12)c1ccc(S(=O)(=O)N(CCc2ccccc2)CCc2ccccc2)cc1 [Compound 7e, 5-[4-(N,N-diphenethylsulfamoyl)benzamido]naphthalene-2-sulfonic acid]	–
61.3 ± 4.3	O=C(Nc1cccc2cc(S(=O)(=O)O)ccc12)c1ccc(S(=O)(=O)N(CCc2ccccc2)Cc2ccccc2)cc1 [Compound 7f, 5-[4-(N-benzyl-N-phenethylsulfamoyl)benzamido]naphthalene-2-sulfonic acid]	–
47.3 ± 6.5	O=C(Nc1cccc2cc(S(=O)(=O)O)ccc12)c1ccc(S(=O)(=O)NCCc2ccccc2)cc1 [Compound 7g, 5-[4-(N-phenethylsulfamoyl)benzamido]naphthalene-2-sulfonic acid]	classification as active or inactive Panx-1 blocker (Panx-1 channels): inactive
